Consider 19 compounds from ChEMBL document CHEMBL1146905, “Synthesis and evaluation of phenoxy acetic acid derivatives as [corrected] anti-mycobacterial agents” (2006).

Converted amounts (≈) assume the structure as drawn.

Common to all, as to assay type: functional
The test system of experiment [1] is Mycobacterium tuberculosis. Nature of the experiment: Antimycobacterial activity against Mycobacterium tuberculosis H37Rv by BACTEC-460 radiometric assay above 6.25 ug/ml.
Experiment [2] relates to Mycobacterium tuberculosis. Nature of the experiment: Antimycobacterial activity against Mycobacterium tuberculosis H37Rv by BACTEC-460 radiometric assay.
For experiment [3], the system named is Mycobacterium tuberculosis. In words: Antimycobacterial activity against Mycobacterium tuberculosis H37Rv by BACTEC-460 radiometric assay at 6.25 ug/ml.

What is called Inhibition is the percentage by which the read-out fell short of the control. Higher therefore signals strong suppression. A word on the MIC: it is the lowest concentration found to suppress growth. For the compound `COc1cc(C2=NN(C(=O)c3ccccc3)C(Cc3ccccc3)C2)c(C)cc1OCC(=O)O` (stereo not drawn), the Inhibition in experiment [1] stood at 12%. Further, the MIC in experiment [2] was over 6.25 µg/mL.

Compound `COc1cc(C2=NN(C(=O)Cc3ccccc3)C3CCCC23)c(C)cc1OCC(=O)O` (stereo not drawn) had an Inhibition in experiment [1] of 21%. In experiment [2], this compound had an MIC of over 6.25 µg/mL.

`COc1cc(C2=NN(C(=O)c3ccc([N+](=O)[O-])cc3)C(c3ccc(O)cc3)C2)c(C)cc1OCC(=O)O` (stereo not drawn) yielded an Inhibition in experiment [1] of 74%. The same compound showed an MIC in experiment [2] of 6.25 µg/mL (≈ 12.4 µM).

In turn, `COc1cc(C2=NN(C(=O)Cc3ccccc3)C(c3ccc(O)cc3)C2)c(C)cc1OCC(=O)O` (stereo not drawn) displayed an Inhibition in experiment [1] of 28%. The same compound yielded an MIC in experiment [2] of over 6.25 µg/mL.

`COc1cc(C2=NN(C(=O)COc3ccc4ccccc4c3)C3CCCC23)c(C)cc1OCC(=O)O` (stereo not drawn) gave an Inhibition in experiment [1] of 91%. Also, the MIC in experiment [2] worked out at 6.12 µg/mL (≈ 12.5 µM).

`COc1cc(C2=NN(C(=O)c3ccccc3)C(c3ccc(O)cc3)C2)c(C)cc1OCC(=O)O` (stereo not drawn): the Inhibition in experiment [1] amounted to 72%. Moreover, the MIC in experiment [2] was over 6.25 µg/mL.

`COc1cc(C2=NN(C(=O)c3ccccc3)C3CCCC23)c(C)cc1OCC(=O)O` (stereo not drawn) came in with an Inhibition in experiment [1] of 24%. In addition, the MIC in experiment [2] is over 6.25 µg/mL.

One may read the inhibition as the percentage by which the read-out fell short of the control. The compound `COc1cc(C2=NN(C(=O)COc3ccccc3)C(c3ccc(O)cc3)C2)c(C)cc1OCC(=O)O` (stereo not drawn) came in with an inhibition at 6.25 µg/mL in experiment [3] of 99%. In experiment [2], this compound yielded an MIC of 0.1 µg/mL (≈ 0.204 µM).

`COc1cc(C2=NN(C(=O)COc3cccc4ccccc34)C(Cc3ccccc3)C2)c(C)cc1OCC(=O)O` (stereo not drawn) registered an Inhibition in experiment [1] of 18%. In addition, the minimum inhibitory concentration (MIC) in experiment [2] was over 6.25 µg/mL.

Take `COc1cc(C2=NN(C(=O)c3ccc([N+](=O)[O-])cc3)C(Cc3ccccc3)C2)c(C)cc1OCC(=O)O` (stereo not drawn): the Inhibition in experiment [1] stood at 64%. Further, the minimum inhibitory concentration (MIC) in experiment [2] is over 6.25 µg/mL.

In experiment [1], `COc1cc(C2=NN(C(=O)COc3cccc4ccccc34)C3CCCC23)c(C)cc1OCC(=O)O` (stereo not drawn) displayed an Inhibition of 54%. Besides, in experiment [2], the MIC was over 6.25 µg/mL.

Compound `COc1cc(C2=NN(C(=O)Cc3ccccc3)C(Cc3ccccc3)C2)c(C)cc1OCC(=O)O` (stereo not drawn) displayed an Inhibition in experiment [1] of 34%. Also, in experiment [2], the minimal inhibitory concentration (MIC) is over 6.25 µg/mL.

In experiment [1], `COc1cc(C2=NN(C(=O)COc3cccc4ccccc34)C(c3ccc(O)cc3)C2)c(C)cc1OCC(=O)O` (stereo not drawn) displayed an Inhibition of 61%. This compound registered a minimum inhibitory concentration (MIC) in experiment [2] of over 6.25 µg/mL.

In experiment [3], `COc1cc(C2=NN(C(=O)COc3ccccc3)C(Cc3ccccc3)C2)c(C)cc1OCC(=O)O` (stereo not drawn) gave an inhibition at 6.25 µg/mL of 94%. The same compound had an MIC in experiment [2] of over 6.25 µg/mL.

Take `COc1cc(C2=NN(C(=O)COc3ccc4ccccc4c3)C(c3ccc(O)cc3)C2)c(C)cc1OCC(=O)O` (stereo not drawn): the inhibition at 6.25 µg/mL in experiment [3] was 99%. In experiment [2], it took 0.1 µg/mL (≈ 0.185 µM) to inhibit growth (MIC).

On to `COc1cc(C2=NN(C(=O)COc3ccc4ccccc4c3)C(Cc3ccccc3)C2)c(C)cc1OCC(=O)O` (stereo not drawn), for which, in experiment [3], at 6.25 µg/mL the inhibition was 95%. The minimal inhibitory concentration (MIC) in experiment [2] came to 0.22 µg/mL (≈ 0.408 µM).

`COc1cc(C2=NN(C(=O)COc3ccccc3)C3CCCC23)c(C)cc1OCC(=O)O` (stereo not drawn) registered an Inhibition in experiment [1] of 87%. Further, the minimal inhibitory concentration (MIC) in experiment [2] was over 6.25 µg/mL.

In experiment [3], `NNC(=O)c1ccncc1` [ISONIAZID] gave an inhibition at 6.25 µg/mL of 96%. The minimum inhibitory concentration (MIC) in experiment [2] was 0.1 µg/mL (≈ 0.729 µM).

Compound `COc1cc(C2=NN(C(=O)c3ccc([N+](=O)[O-])cc3)C3CCCC23)c(C)cc1OCC(=O)O` (stereo not drawn) gave an Inhibition in experiment [1] of 26%. In experiment [2], this compound registered a minimal inhibitory concentration (MIC) of over 6.25 µg/mL.
